Data on two compounds can be found in patent publication EP2616456B1, “NUCLEAR EXPORT INHIBITORS” (Universitätsmedizin der Johannes Gutenberg-Universität Mainz, priority 2010, dated 2012).

Entries after “also recorded” stand apart in the source; their conditions may differ.

The subject of one data set is RevNES-biosensor. The experiment in a line: RevNES-biosensor translocation (NES-mediated nuclear export) in living HeLa cells, fluorescence microscopy. As to conditions: for Cellular localization of green fluorescent RevNES-biosensor: HeLa. The format is cell-based. The method, then: The activity of compounds C3, C5 and C24 to inhibit NES-mediated nuclear export in living cells was analyzed as described in Fetz et al., 2009 using living HeLa (cervix carcinoma), FaDu (head and neck cancer), MDA-MB231 (mammacarcinoma) and SW480 cells (colon cancer) which transiently expressed the RevNES-biosensor. The RevNES-biosensor is a fusion protein composed of (from N to C terminus) the SV40 large T-antigen nuclear localization signal (NLS), glutathion-S-transferase (GST), green fluorescent protein (GFP) and the nuclear export signal (NES) of the HIV-1 (human immunodeficiency virus) Rev protein (RevNES).
The cells of the control were treated with a corresponding amount of DMSO only. The cellular localization of RevNES-biosensor was monitored by fluorescence microscopy. […] Maximum of cellular accumulation was observed after 1h (C24), after 2h (C3) and after 5h (C5), respectively. […] Thus, the inhibitory activity of C3 and C24 (reversible) but not of C5 (irreversible) was reversed after 24h. Table 1: Cellular localization of green fluorescent RevNES-biosensor
Table 3: Cellular localization of green fluorescent RevNES-biosensor
(§1) IC50 value corresponds to compound concentration reducing HeLa cell viability by 50%. Topt is the time point post treatment when maximum nuclear export inhibition was observed by fluorescence microscopy. Table 4: Functional characteristics of nuclear export inhibitors

For another data set, the system named is Survivin. Briefly: Nuclear export of Survivin-GFP fusion transiently expressed in HeLa cells. In kind it is cell-based. To be noted: transient expression, 25µM. The method, then: The activity of compounds to inhibit the export of the oncologically relevant protein Survivin as well as of the HIV-1 Rev protein was analyzed.
Nuclear export of Survivin is crucial for its tumor promoting cytoprotective activity (Engels et al., 2007; Knauer et al., 2007a; Knauer et al., 2007b).

A further data set deals with HIV-1 Rev protein. Briefly: Nuclear export of HIV-1 Rev-GFP in actinomycin D treated HeLa cells. In kind it is cell-based. As to conditions: 25µM. An excerpt: The HIV-1 Rev protein transports unspliced and incompletely spliced viral RNAs from the nucleus into the cytoplasm (Stauber et al., 1995). As such, Rev's export function is crucial for viral replication and AIDS development (Pavlakis and Stauber, 1998; Stauber et al., 1995).

The subject of a further data set is HTF-8. Briefly: Viability (CellTiter-Glo) and cell death of non-malignant primary fibroblasts HTF-8. The format is cell-based. As to conditions: HTF-8 non-malignant primary human fibroblasts, 100µM, 72h. The method, then:
It was assessed whether the export inhibitors also affect the viability of non-malignant human cells, precluding their potential (pre)clinical use. […] Every 24h cell culture medium was replaced by freshly prepared compound-containing medium. 72h post treatment the cells were analyzed by adding 100µl CellTiter-Glo® assay reagent, and luminescence measured with a LuminoskanAscent (ThermoScientific). Cells treated with DMSO only were used as a control. The fluorescence measured (equals cell viability) with said control was set to 100%.
(ATP-based viability assays read luminescence as a measure of living cells.)

Another data set concerns HeLa cells. Briefly: Cell viability (CellTiter-Glo) and cell death, HeLa. The format is cell-based. To be noted: Homo sapiens; compound concentration reducing HeLa cell viability by 50%. The method, then: To test the anti-cancer activity of the compounds, several cancer cell lines, currently used as models for different epithelial cancers and leukemias, were treated with the indicated inhibitors. […] Every 24h, the cell culture medium was replaced by fresh compound-containing medium. 72h post treatment, cell were analyzed by adding 100µl CellTiter-Glo® assay reagent (Promega). Luminescence was measured with a LuminoskanAscent device (ThermoScientific). Cells treated with a corresponding amount of DMSO only were use as a control. The luminescence (equals cell viability) of said control was set to 100%.
as §1
It was assessed whether the export inhibitors also affect the viability of non-malignant human cells, precluding their potential (pre)clinical use. 10^3 freshly isolated non-malignant primary human fibroblasts (HTF-8) or HeLa cells/well were seeded and 24h later treated with the indicated compounds (final concentration: 100µM). Every 24h cell culture medium was replaced by freshly prepared compound-containing medium. 72h post treatment the cells were analyzed by adding 100µl CellTiter-Glo® assay reagent, and luminescence measured with a LuminoskanAscent (ThermoScientific). Cells treated with DMSO only were used as a control. The fluorescence measured (equals cell viability) with said control was set to 100%.

Another data set concerns the target human CRM1 (Crm1-HA) (Homo sapiens, UniProt O14980). Briefly: In vitro pull-down of Crm1-HA with GST-SurvivinNES-GFP beads. In kind it is binding. To be noted: preincubation 400nM, 30min at 4°C. The method, then: The binding of LMB and of compounds C3 and C5 to CRM1 was examined by in vitro pull-down assays as described by Stauber et al., 2006. Briefly, in vitro coupled transcription/translation was performed using the TNT reticulocyte lysate system (Promega, Madison, WI, USA) supplemented with methionine (Promega, Madison, WI, USA) and plasmid pCrm1_HA (1µg), encoding a hemagglutinin epitope-tagged version of human CRM1 (Crm1-HA), as the template. Equal amounts of the Crm1-HA TNT reaction were preincubated with either DMSO (negative control; 0.1%), LMB (400nM, final concentration), C3 (1 mM; final concentration) or C5 (1mM; final concentration) in binding-buffer containing 5mM MgCl2 (AppliChem, Darmstadt, Germany), 2mM GTP (PEQLAB, Erlangen, Germany), 50mM Hepes pH 7.9 (AppliChem, Darmstadt, Germany), 200mM KCI (AppliChem, Darmstadt, Germany), 0.4% Tween 20 (AppliChem, Darmstadt, Germany), supplemented with complete protease inhibitor cocktail (Roche, Mannheim, Germany) for 30min at 4°C. Subsequently, GST-Sepharose beads loaded with 25µg recombinant GST-SurvivinNES-GFP and 5µg GST-RanQ96L were added to each drug-treated TNT reaction. Recombinant GST-SurvivinNES-GFP and GST-RanQ96L were purified from bacteria as described by Stauber et al., 2006. Pull-down was performed for 4h at 4°C in a rotating wheel. Samples were then centrifuged (3500rpm, 1min, 4°C) to recover the GST-SurvivinNES-GFP beads with bound Crm1-HA. Beads were washed three times with binding-buffer (500µl each washing step, 3500rpm, 1min, 4°C). Finally, bound proteins were eluted by adding 25µl 2xSDS-sample buffer (250mM Tris-HCl pH 6.8; 2% w/v SDS, 20% glycerol, 2% β-mercaptoethanol, 0.002% w/v bromophenol blue) and incubating at 95°C for 2min. Samples were separated by SDS-gelelectrophoresis and analyzed by immunoblot analysis as described by Stauber et al., 2006. Crm1-HA was detected with HA specific antibodies (MMS-101R, Covance, New Jersey, USA). GFP served as the loading control and was visualized with GFP specific antibodies (sc-8334, Santa Cruz Biotechnology, Heidelberg, Germany).

human CRM1 (Crm1-HA), sequence (O14980 whole entry): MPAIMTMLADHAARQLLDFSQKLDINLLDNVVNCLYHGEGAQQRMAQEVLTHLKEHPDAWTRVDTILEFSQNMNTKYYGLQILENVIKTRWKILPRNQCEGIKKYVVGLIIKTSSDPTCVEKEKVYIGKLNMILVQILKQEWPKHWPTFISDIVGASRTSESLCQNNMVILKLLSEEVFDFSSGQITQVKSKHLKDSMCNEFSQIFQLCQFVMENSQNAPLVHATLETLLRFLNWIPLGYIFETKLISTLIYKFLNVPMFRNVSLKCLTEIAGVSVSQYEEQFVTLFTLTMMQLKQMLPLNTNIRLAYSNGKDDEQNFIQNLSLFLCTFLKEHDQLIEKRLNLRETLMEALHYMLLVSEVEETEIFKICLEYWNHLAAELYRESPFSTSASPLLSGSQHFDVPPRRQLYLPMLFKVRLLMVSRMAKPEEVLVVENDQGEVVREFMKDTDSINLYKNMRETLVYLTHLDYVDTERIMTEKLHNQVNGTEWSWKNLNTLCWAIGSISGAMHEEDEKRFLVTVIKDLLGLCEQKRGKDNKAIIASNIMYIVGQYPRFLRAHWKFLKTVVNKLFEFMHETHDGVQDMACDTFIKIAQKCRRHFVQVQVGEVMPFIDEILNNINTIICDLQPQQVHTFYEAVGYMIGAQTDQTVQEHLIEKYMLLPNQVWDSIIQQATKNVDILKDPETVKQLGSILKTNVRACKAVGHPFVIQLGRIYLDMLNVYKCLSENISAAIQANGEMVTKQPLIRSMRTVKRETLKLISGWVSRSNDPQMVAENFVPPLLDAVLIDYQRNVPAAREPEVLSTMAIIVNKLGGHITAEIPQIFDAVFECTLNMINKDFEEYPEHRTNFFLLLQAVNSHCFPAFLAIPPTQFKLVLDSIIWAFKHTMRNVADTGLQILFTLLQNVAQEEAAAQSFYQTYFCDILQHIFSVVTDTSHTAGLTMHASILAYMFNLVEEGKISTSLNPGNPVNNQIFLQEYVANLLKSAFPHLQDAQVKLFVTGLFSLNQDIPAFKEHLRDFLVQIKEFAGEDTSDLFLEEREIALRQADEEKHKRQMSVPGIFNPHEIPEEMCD

By IC50 is commonly meant the concentration needed to halve the response being measured. A high value points to a need for much substance. As for `NC(=O)c1c(NC(NC(=O)c2cccc(F)c2)(C(F)(F)F)C(F)(F)F)sc2c1CCC2` [Compound C24, 2-[[1,1,1,3,3,3-hexafluoro-2-[(3-fluorobenzoyl)amino]propan-2-yl]amino]-5,6-dihydro-4H-cyclopenta[b]thiophene-3-carboxamide], the “Cellular localization of green fluorescent RevNES-biosensor” value in the data set with RevNES-biosensor (25µM, T = 24h) was “predominantly localized in the cytoplasm”; with RevNES-biosensor (25µM, at Topt), “nuclear accumulation; also recorded: nucleus”. Further, the “Topt at 25µM” value in the data set on RevNES-biosensor (Table 4, 25µM, fluorescence microscopy) is “∼1h”. Further, the “Mode of Inhibition” value in the data set with RevNES-biosensor (reversal of export inhibition after 24h, C5: 5-12h observation) is “reversible”. In addition, in the data set on Survivin, the “Localization of Survivin-GFP fusion (nuclear export of Survivin)” value is recorded as “accumulated in the nucleus”. Besides, the “Localization of HIV-1 Rev-GFP (nuclear export of HIV-1 Rev protein)” value with HIV-1 Rev protein is “restored the nuclear accumulation”. In the data set with HTF-8, the “viability compared to the control” value is recorded as “do not affect viability”. This compound also yielded an IC50 with HeLa cells of 31 µM.

For the compound `CCC(=C/[C@H](C)C/C=C/C(C)=C/[C@@H](C)C(=O)[C@@H](C)[C@H](O)[C@@H](C)C/C(C)=C/C(=O)O)/C=C/[C@@H]1OC(=O)C=C[C@@H]1C` [LMB, leptomycin B, reference compound], the “interaction of Crm1-HA with the export substrate GST-SurvivinNES-GFP” value at human CRM1 (Crm1-HA) is “prevented the interaction”.
